US9643960B2, “Procaspase activating compounds” (The Board of Trustees of the University of Illinois, priority 2009, dated 2017)
Read-outs that look alike come from different tables or passages of the source.

Assays:
SK-MEL-5 cells = experiment: Live cell confocal imaging, colocalization with caspase-3/-7 activity; format: cell-based, human; settings: 25 μM with FAM-DEVD-fmk
Procedure: Live Cell Imaging—SK-Mel-5 cells were grown on the bottom of no. 1 borosilicate growth chambers (Nunc) to a confluency of […]. Cells were then treated with DMSO, 25 μM FAM-DEVD-fmk in DMSO, 25 μM AF350-PAC-1 in DMSO, or both 25 μM FAM-DEVD-fmk and 25 μM AF350-PAC-1 concurrently for 1 hour at 37° C. and 5% CO2. Cells were then washed 5 times with RPMI 1640 growth media lacking phenol red. The cells were then allowed to further incubate at 37° C. for 2 hours before imaging. For cells stained with SYBR green for nuclear staining, a 1:100,000 dilution of SYBR green in media was added immediately prior to imaging. Cells were imaged on a Leica SP2 Multiphoton Confocal microscope.

[1] = EGTA fluorescence titration assay (zinc binding); settings: read-out: Zinc Binding (KD) nM
caspase-3 = target: T1, caspase-3 (Homo sapiens, UniProt P42574); experiment: Caspase-3 activity assay (relief of zinc mediated inhibition); format: biochemical; settings: for activation at 10 µM: 10 μM compound, 2.5 μM zinc
T1 construct: Active caspase-3 is a homodimer of heterodimers and is produced by proteolysis of procaspase-3; 6xHis (C); made in house; host or cells: Escherichia coli BL21(DE3), plasmid pHC332
T1 sequence (P42574 29-175 limits assumed): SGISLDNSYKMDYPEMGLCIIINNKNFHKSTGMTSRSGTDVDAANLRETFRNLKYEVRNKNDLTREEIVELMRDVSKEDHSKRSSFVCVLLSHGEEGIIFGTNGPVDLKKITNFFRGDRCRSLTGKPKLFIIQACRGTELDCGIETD
T1 sequence (P42574 176-277 limits assumed): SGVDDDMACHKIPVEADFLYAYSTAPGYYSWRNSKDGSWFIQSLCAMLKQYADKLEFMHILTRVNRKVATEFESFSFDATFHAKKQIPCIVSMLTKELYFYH
Procedure: Caspase-3 Activity Assays—Zinc-free stocks (2×) of caspase-3 (1 μM) were prepared in Caspase Activity Buffer. Compound stock solutions were made (2×) at various concentrations from 200 μM to 200 nM in Caspase Activity Buffer. […] The plates were incubated at room temperature for 30 minutes. […] The data for each compound concentration (4 wells) was averaged and the percent activity was plotted as a function of compound concentration. The data was analyzed using Table Curve 2D and fitted to a logistical dose-response curve. […] The percent activity at 10 μM was determined for each compound and reported as an average of the three replicate experiments with the corresponding SEM.

[2] = tested on: U937 human lymphoma cells; experiment: Cell death assay in U937 cells (sulforhodamine B, 72 h); format: cell-based
Procedure: To each well was added 2 μL of 100× compound stock solutions in DMSO at varying concentrations so that the cells were treated with concentrations between 0 μM and 100 μM compound. Each concentration was tested in quintuplicate. In each plate 5 wells received 10 μM etoposide as a positive control and 5 wells received 2 μL of DMSO as a negative control. […] 1 Specifically, to each well of the plate was added 50 μL of an 80% (w/v) solution of TCA in H2O and the plates were allowed to rest at 4° C. overnight. The plates were then washed gently with a steam of H2O five times to remove the excess TCA and precipitated serum proteins. […] After staining, the wells were gently washed 5 times with 100 μL of 1% (v/v) acetic acid to remove the unbound dye. The plates were then allowed to air dry. […] The OD was then read at 510 nm in a Molecular Dynamics plate reader and the percent cell death calculated and normalized to the positive control (100% cell death) and the negative control (0% cell death). The percent cell death was averaged for each compound concentration and plotted as a function of compound concentration. The data were fit to a logistical dose response curve using Table curve 2D and the IC50 value was calculated. The experiment was repeated three times and the average of the calculated IC50 values was reported. The standard error of the mean (SEM) was determined and reported for the triplicate experiments.
U-937 cells grow in culture as a suspension.

[3] = Solubility in β-cyclodextran; format: physicochemical
[4] = Homo sapiens, U-937, 72 h, 72 h exposure, sulforhodamine B assay, read-out: U937 (IC50 μM)
[5] = Homo sapiens, U-937, 72 h, read-out: U937 (IC50 μM), 72 h exposure, sulforhodamine B assay

| Kd [1] [nM] | activation at 10 µM (caspase-3) [%] | SMILES | IC50 [2, 4] [µM] | further results |
| --- | --- | --- | --- | --- |
| 61 | 6.3 | C=CCc1cccc(/C=N/NC(=O)CN2CCN(Cc3cccc(Cn4cc(CNC(=O)Cc5c(C)c6cc(S(=O)(=O)O)c(N)cc6oc5=O)nn4)c3)CC2)c1O [AF-PAC-1] | 14.8 | colocalization with sites of caspase-3/-7 enzymatic activity (SK-MEL-5 cells): good colocalization; activation at 50 µM (caspase-3; 50 μM compound): 20% |
| 96 | 24.2 ± 1.7 | C=CCc1cccc(/C=N/NC(=O)CN2CCN(Cc3ccc(F)cc3)CC2)c1O [PAC-1-II-4] | 2 ± 0.2 |  |
| 50 | 36 ± 3 | C=CCc1cccc(/C=N/NC(=O)CN2CCC(Cc3ccccc3)CC2)c1O [PAC-1-IV-3] | 2.7 ± 1.1 |  |
| 41 | 24 ± 3.4 | C=CCc1cccc(/C=N/NC(=O)CN2CCN(Cc3ccc(OC)cc3)CC2)c1O [PAC-1-II-6] | 2.7 ± 0.8 | Solubility in β-Cyclodextran (mg β-CD/μmol Compound) [3]: 7.1 mg β-CD/μmol Compound |
|  | 4.1 ± 1 | O=C(CN1CCN(Cc2ccccc2)CC1)NCCc1ccccc1O [PAC-1-IV-6] | > 100 |  |
|  | 4.4 ± 0.9 | O=C(CN1CCN(Cc2ccccc2)CC1)NCc1ccccc1O [PAC-1-IV-7] | > 100 |  |
| 76 | 48 ± 3 | C=CCc1cccc(/C=N/NC(=O)CN2CCN(Cc3ccccn3)CC2)c1O [PAC-1-II-1] | 9.5 ± 1.8 |  |

More lines, now with the values behind:

| SMILES | Kd [1] [nM] | activation at 10 µM (caspase-3) [%] | IC50 [2, 4] [µM] | further results |
| --- | --- | --- | --- | --- |
| C=CCc1cccc(/C=N/NC(=O)CN2CCN(Cc3cccc([N+](=O)[O-])c3)CC2)c1O [PAC-1-II-7] |  |  | 4.6 ± 1 | Solubility in β-Cyclodextran (mg β-CD/μmol Compound) [3]: 4.0 mg β-CD/μmol Compound |
| COc1cccc(/C=N/NC(=O)CN2CCN(Cc3cc(OC)c(OC)c(OC)c3)CC2)c1O [PAC-1-III-2] |  |  | 27 ± 9.4 |  |
| C=CCc1cccc(/C=N/NC(=O)CN2CCN(Cc3cccc(C(=O)O)c3)CC2)c1O [PAC-1-II-8] |  |  | 2.3 | Solubility in β-Cyclodextran (mg β-CD/μmol Compound) [3]: 5.6 mg β-CD/μmol Compound |
| COc1cc(O)c(/C=N/NC(=O)CN2CCN(Cc3ccccc3CS(=O)(=O)c3ccccc3)CC2)c(OC)c1 [PAC-1-III-6] |  |  | 5.5 ± 1.5 |  |
| C=CCc1cccc(/C=N/NC(=O)CN2CCN(Cc3cc(OC)ccc3OC)CC2)c1O [PAC-1-II-5] | 36 | 31 ± 3.6 | 1 ± 0.1 | Solubility in β-Cyclodextran (mg β-CD/μmol Compound) [3]: 15.2 mg β-CD/μmol Compound |
| C=CCc1cc(/C=N/NC(=O)CN2CCN(Cc3ccccc3)CC2)c(O)c(CC=C)c1 [PAC-1-I-10] |  |  |  | IC50 [2, 5]: 1.8 ± 0.4 µM; IC50 ([2]; read-out: U937 (IC50 μM), 72 h exposure, sulforhodamine B assay): 1.6 ± 0.4 µM |
| COc1ccc(OC)c(CN2CCN(CC(=O)N/N=C/c3ccccc3O)CC2)c1 [PAC-1-III-1] |  |  |  | IC50 [2, 5]: 12 ± 2 µM |
| COc1cccc(/C=N/NC(=O)CN2CCN(Cc3ccccc3CS(=O)(=O)c3ccccc3)CC2)c1O [PAC-1-III-5] |  |  | 8.4 ± 1.6 |  |
| COc1cc(O)c(/C=N/NC(=O)CN2CCN(Cc3cc(OC)c(OC)c(OC)c3)CC2)c(OC)c1 [PAC-1-III-3] |  |  | 38 ± 6.2 |  |
| C=CCc1cccc(/C=N/NC(=O)CN2CCN(Cc3cccc(Cn4cc(CNC(=O)Cc5c(C)c6cc(S(=O)(=O)O)c(N)cc6oc5=O)nn4)c3)CC2)c1O [drawing 79] |  |  |  | IC50 ([2]; 72 h exposure, sulforhodamine B assay, read-out: U937 (IC50 μM)): 10.7 µM |
| COc1ccc(OC)c(CN2CCN(CC(=O)N/N=C/c3c(O)cc(OC)cc3OC)CC2)c1 [PAC-1-III-4] |  |  | 17.5 |  |
